Measurements: article PMC5218480 (PLoS ONE, 2017)

System: MV-4-11 cells
Test: Gene expression microarray analysis (Affymetrix PrimeView) and GSEA
Format: cell-based, human
Design: RFU PODN (11730768_x_at) / Fold change /veh PODN (11730768_x_at) / RFU LINC00158 (11744669_a_at) / Fold change /veh LINC00158 (11744669_a_at) / RFU DUSP10 (11751237_a_at) / Fold change /veh DUSP10 (11751237_a_at) / RFU ID3 (11757404_x_at) / Fold change /veh ID3 (11757404_x_at) / RFU PLEKHG5 (11737974_s_at) / Fold change /veh PLEKHG5 (11737974_s_at) / RFU LRRC4B (11730491_at) / Fold change /veh LRRC4B (11730491_at) / RFU GIMAP4 (11747438_a_at) / Fold change /veh GIMAP4 (11747438_a_at) / RFU KRT8 (11758183_x_at) / Fold change /veh KRT8 (11758183_x_at) / RFU CNN1 (11734310_a_at) / Fold change /veh CNN1 (11734310_a_at) / RFU VPS37D (11726825_at) / Fold change /veh VPS37D (11726825_at) / RFU C10orf10 (11716522_x_at) / Fold change /veh C10orf10 (11716522_x_at) / RFU KIR2DL2 /// KIR2DL4 /// KIR2DL5A /// KIR2DL5B /// KIR2DS1 /// KIR2DS2 /// KIR2DS3 /// KIR2DS4 /// KIR3DL3 /// KIR3DL3 /// KIR3DS1 (11738374_at) / Fold change /veh KIR2DL2 /// KIR2DL4 /// KIR2DL5A /// KIR2DL5B /// KIR2DS1 /// KIR2DS2 /// KIR2DS3 /// KIR2DS4 /// KIR3DL3 /// KIR3DL3 /// KIR3DS1 (11738374_at) / RFU C1QL1 (11718748_at) / Fold change /veh C1QL1 (11718748_at) / RFU TMPRSS4 (11747572_a_at) / Fold change /veh TMPRSS4 (11747572_a_at) / RFU HAMP (11756126_x_at) / Fold change /veh HAMP (11756126_x_at) / RFU RNFT2 (11725882_a_at) / Fold change /veh RNFT2 (11725882_a_at) / RFU NR4A2 (11747474_a_at) / Fold change /veh NR4A2 (11747474_a_at) / RFU ABCC12 (11746883_a_at) / Fold change /veh ABCC12 (11746883_a_at) / RFU TMEM136 (11760407_x_at) / Fold change /veh TMEM136 (11760407_x_at) / RFU CLDN22 /// WWC2 (11732394_at) / Fold change /veh CLDN22 /// WWC2 (11732394_at) / RFU HLA-DPB1 (11760878_x_at) / Fold change /veh HLA-DPB1 (11760878_x_at) / RFU SPINT1 (11716480_a_at) / Fold change /veh SPINT1 (11716480_a_at) / RFU GAP43 (11754022_s_at) / Fold change /veh GAP43 (11754022_s_at) / RFU A4GNT (11735810_at) / Fold change /veh A4GNT (11735810_at) / RFU PRB3 (11715151_x_at) / Fold change /veh PRB3 (11715151_x_at) / RFU TUBB4B (11761932_at) / Fold change /veh TUBB4B (11761932_at) / RFU CAPN14 (11732068_a_at) / Fold change /veh CAPN14 (11732068_a_at) / RFU TMCC2 (11721928_a_at) / Fold change /veh TMCC2 (11721928_a_at) / RFU IRGQ (11745062_a_at) / Fold change /veh IRGQ (11745062_a_at) / RFU FAM174B (11720279_a_at) / Fold change /veh FAM174B (11720279_a_at) / RFU TMPRSS4 (11748680_a_at) / Fold change /veh TMPRSS4 (11748680_a_at) / RFU FAM212B (11763350_a_at) / Fold change /veh FAM212B (11763350_a_at) / RFU PLEKHG5 (11743358_a_at) / Fold change /veh PLEKHG5 (11743358_a_at) / RFU ZSCAN30 (11745921_a_at) / Fold change /veh ZSCAN30 (11745921_a_at) / RFU CMKLR1 (11741424_a_at) / Fold change /veh CMKLR1 (11741424_a_at) / RFU LOC101060620 /// MAPK8IP1 (11723275_at) / Fold change /veh LOC101060620 /// MAPK8IP1 (11723275_at) / RFU SPTSSB (11747773_x_at) / Fold change /veh SPTSSB (11747773_x_at) / RFU PRSS12 (11739890_at) / Fold change /veh PRSS12 (11739890_at) / RFU BIN1 (11741810_x_at) / Fold change /veh BIN1 (11741810_x_at) / RFU WNT11 (11732464_a_at) / Fold change /veh WNT11 (11732464_a_at) / RFU C10orf10 (11716521_a_at) / Fold change /veh C10orf10 (11716521_a_at) / RFU C5orf56 (11738089_at) / Fold change /veh C5orf56 (11738089_at) / RFU CYB561 (11721691_x_at) / Fold change /veh CYB561 (11721691_x_at) / RFU ANKRD19P (11752326_a_at) / Fold change /veh ANKRD19P (11752326_a_at) / RFU OR2T12 /// OR2T33 /// OR2T8 (11738714_s_at) / Fold change /veh OR2T12 /// OR2T33 /// OR2T8 (11738714_s_at) / RFU VCAN (11748164_a_at) / Fold change /veh VCAN (11748164_a_at) / RFU JSRP1 (11732532_at) / Fold change /veh JSRP1 (11732532_at) / RFU KRTAP10-11 (11738290_x_at) / Fold change /veh KRTAP10-11 (11738290_x_at) / RFU MYO3A (11730013_a_at) / Fold change /veh MYO3A (11730013_a_at) / RFU EBF3 (11725865_a_at) / Fold change /veh EBF3 (11725865_a_at) / RFU CAMK2N1 (11719241_x_at) / Fold change /veh CAMK2N1 (11719241_x_at) / RFU C5orf56 (11738088_a_at) / Fold change /veh C5orf56 (11738088_a_at) / RFU OLFML3 (11715873_a_at) / Fold change /veh OLFML3 (11715873_a_at) / RFU LOC100653217 /// NTM (11731650_a_at) / Fold change /veh LOC100653217 /// NTM (11731650_a_at) / RFU MAPK11 (11762145_a_at) / Fold change /veh MAPK11 (11762145_a_at) / RFU FIZ1 (11724087_x_at) / Fold change /veh FIZ1 (11724087_x_at) / RFU OASL (11726364_x_at) / Fold change /veh OASL (11726364_x_at) / RFU SOX15 (11748057_x_at) / Fold change /veh SOX15 (11748057_x_at) / RFU CD79A (11719716_a_at) / Fold change /veh CD79A (11719716_a_at) / RFU HIST1H1D (11736915_at) / Fold change /veh HIST1H1D (11736915_at) / RFU CASKIN2 (11723855_a_at) / Fold change /veh CASKIN2 (11723855_a_at) / RFU LOC730098 (11760151_x_at) / Fold change /veh LOC730098 (11760151_x_at) / RFU OR4N2 (11742367_at) / Fold change /veh OR4N2 (11742367_at) / RFU PRRT2 (11749266_a_at) / Fold change /veh PRRT2 (11749266_a_at) / RFU SNX32 (11753110_a_at) / Fold change /veh SNX32 (11753110_a_at) / RFU CDHR5 (11726645_a_at) / Fold change /veh CDHR5 (11726645_a_at) / RFU RCAN1 (11760418_a_at) / Fold change /veh RCAN1 (11760418_a_at) / RFU FAM167A (11723789_a_at) / Fold change /veh FAM167A (11723789_a_at) / RFU FAM26E (11764081_at) / Fold change /veh FAM26E (11764081_at) / RFU ISYNA1 (11749810_s_at) / Fold change /veh ISYNA1 (11749810_s_at) / RFU ACY1 (11761880_at) / Fold change /veh ACY1 (11761880_at) / RFU 11764098_at / Fold change /veh 11764098_at / RFU SAMD14 (11745864_x_at) / Fold change /veh SAMD14 (11745864_x_at) / RFU NPB (11741838_a_at) / Fold change /veh NPB (11741838_a_at) / RFU TMPRSS6 (11731388_a_at) / Fold change /veh TMPRSS6 (11731388_a_at) / RFU KRTAP10-2 (11738614_at) / Fold change /veh KRTAP10-2 (11738614_at) / RFU ARHGAP8 /// PRR5-ARHGAP8 (11727945_x_at) / Fold change /veh ARHGAP8 /// PRR5-ARHGAP8 (11727945_x_at) / RFU KRTAP5-7 /// NADSYN1 (11734609_at) / Fold change /veh KRTAP5-7 /// NADSYN1 (11734609_at) / RFU RASL12 (11751679_a_at) / Fold change /veh RASL12 (11751679_a_at) / RFU CDKN2B (11736163_a_at) / Fold change /veh CDKN2B (11736163_a_at) / RFU PRF1 (11729649_at) / Fold change /veh PRF1 (11729649_at) / RFU, ZNF638 /// ZNF638-IT1 / Fold change vs veh, ZNF638 /// ZNF638-IT1 / RFU, PANK3 / Fold change vs veh, PANK3 / RFU, SH3YL1 / Fold change vs veh, SH3YL1 / RFU, ZEB2 / Fold change vs veh, ZEB2 / RFU, NRIP1 / Fold change vs veh, NRIP1 / RFU, PTTG1IP / Fold change vs veh, PTTG1IP / RFU, CAPN2 / Fold change vs veh, CAPN2 / RFU, MED14 / Fold change vs veh, MED14 / RFU, SNORA58 / Fold change vs veh, SNORA58 / RFU, C1orf63 / Fold change vs veh, C1orf63 / RFU, LRRFIP1 / Fold change vs veh, LRRFIP1 / RFU, NDUFAF7 / Fold change vs veh, NDUFAF7 / RFU, SLC12A2 / Fold change vs veh, SLC12A2 / RFU, IBTK / Fold change vs veh, IBTK / RFU, ESF1 / Fold change vs veh, ESF1 / Fold change vs veh, TMEM50B / RFU, TAOK1 / Fold change vs veh, TAOK1 / RFU, ACBD3 / Fold change vs veh, ACBD3 / RFU, TMA16 / Fold change vs veh, TMA16 / RFU, RWDD3 / Fold change vs veh, RWDD3 / RFU, BCAT1 / Fold change vs veh, BCAT1 / RFU, EDEM3 / Fold change vs veh, EDEM3 / RFU, TMEM33 / Fold change vs veh, TMEM33 / RFU, WDR75 / Fold change vs veh, WDR75 / RFU, AHCTF1 / Fold change vs veh, AHCTF1 / RFU, TFRC / Fold change vs veh, TFRC / RFU, ZDHHC17 / Fold change vs veh, ZDHHC17 / RFU, NOM1 / Fold change vs veh, NOM1 / RFU, ARL8B / Fold change vs veh, ARL8B / RFU, ZBTB11 / Fold change vs veh, ZBTB11 / RFU, TAMM41 / Fold change vs veh, TAMM41 / RFU, KIAA1704 /// LOC100996395 / Fold change vs veh, KIAA1704 /// LOC100996395 / RFU, ING1 / Fold change vs veh, ING1 / RFU, TRMT61B / Fold change vs veh, TRMT61B / RFU, FUBP3 / Fold change vs veh, FUBP3 / RFU, TP53 / Fold change vs veh, TP53 / RFU, TNKS2 / Fold change vs veh, TNKS2 / RFU, ZFP14 / Fold change vs veh, ZFP14 / RFU, ACTR2 / Fold change vs veh, ACTR2 / RFU, PPP3R1 / Fold change vs veh, PPP3R1 / RFU, PIK3R1 / Fold change vs veh, PIK3R1 / RFU, HNRNPA1 / Fold change vs veh, HNRNPA1 / RFU, RNF170 / Fold change vs veh, RNF170 / RFU, ZNF28 / Fold change vs veh, ZNF28 / RFU, RNGTT / Fold change vs veh, RNGTT / RFU, OGT / Fold change vs veh, OGT / RFU, BRD1 / Fold change vs veh, BRD1 / RFU, MARS / Fold change vs veh, MARS / RFU, ZNF655 / Fold change vs veh, ZNF655 / RFU, FAHD1 / Fold change vs veh, FAHD1 / RFU, BDP1 / Fold change vs veh, BDP1 / RFU, LRRCC1 / Fold change vs veh, LRRCC1 / RFU, ARID1A / Fold change vs veh, ARID1A / RFU, ZNF146 / Fold change vs veh, ZNF146 / RFU, ZNF330 / Fold change vs veh, ZNF330 / RFU, GPN3 / Fold change vs veh, GPN3 / RFU, C9orf123 / Fold change vs veh, C9orf123 / RFU, N4BP2L2 / Fold change vs veh, N4BP2L2 / RFU, ARFIP1 / Fold change vs veh, ARFIP1 / RFU, FAM179B / Fold change vs veh, FAM179B / RFU, BCL10 / Fold change vs veh, BCL10 / RFU, UHRF1BP1L / Fold change vs veh, UHRF1BP1L / RFU, BET1 / Fold change vs veh, BET1 / RFU, CNOT2 / Fold change vs veh, CNOT2 / RFU, ZNF268 / Fold change vs veh, ZNF268 / Fold change vs veh, ZNF507 / RFU, DGCR2 / Fold change vs veh, DGCR2 / RFU, WDSUB1 / Fold change vs veh, WDSUB1 / Fold change vs veh, HSP90B1 /// MIR3652 / RFU, ADSS / Fold change vs veh, ADSS / RFU, GK / Fold change vs veh, GK / RFU, ZNF148 / Fold change vs veh, ZNF148 / RFU, TAF9 / Fold change vs veh, TAF9 / RFU, SLC1A5 / Fold change vs veh, SLC1A5 / RFU, SLMO2 / Fold change vs veh, SLMO2 / RFU, ABCC4 / Fold change vs veh, ABCC4 / RFU, LOC101060439 /// RAP1B / Fold change vs veh, LOC101060439 /// RAP1B / RFU, RFX7 / Fold change vs veh, RFX7 / RFU, GTPBP10 / Fold change vs veh, GTPBP10 / RFU, CNEP1R1 / Fold change vs veh, CNEP1R1 / RFU, BIVM-ERCC5 /// ERCC5 / Fold change vs veh, BIVM-ERCC5 /// ERCC5 / RFU, ILF3 / Fold change vs veh, ILF3 / RFU 11762660_at / Fold change /veh 11762660_at / RFU VCAN (11757783_s_at) / Fold change /veh VCAN (11757783_s_at) / RFU DDX43 (11728927_at) / Fold change /veh DDX43 (11728927_at) / RFU KRT8 (11758188_x_at) / Fold change /veh KRT8 (11758188_x_at) / RFU NKD1 (11759106_at) / Fold change /veh NKD1 (11759106_at) / RFU SRD5A1 (11742802_a_at) / Fold change /veh SRD5A1 (11742802_a_at) / RFU TPSAB1 /// TPSB2 (11721975_s_at) / Fold change /veh TPSAB1 /// TPSB2 (11721975_s_at) / RFU GSTM3 (11746129_a_at) / Fold change /veh GSTM3 (11746129_a_at) / RFU IL23R (11737362_x_at) / Fold change /veh IL23R (11737362_x_at) / RFU TMEM51 (11727254_a_at) / Fold change /veh TMEM51 (11727254_a_at) / RFU PIWIL2 (11732686_x_at) / Fold change /veh PIWIL2 (11732686_x_at) / RFU ORM1 (11744905_x_at) / Fold change /veh ORM1 (11744905_x_at) / RFU CCDC152 (11743942_at) / Fold change /veh CCDC152 (11743942_at) / RFU ECM1 (11717891_a_at) / Fold change /veh ECM1 (11717891_a_at) / RFU IL23R (11748794_a_at) / Fold change /veh IL23R (11748794_a_at) / RFU TNFAIP8L3 (11732012_x_at) / Fold change /veh TNFAIP8L3 (11732012_x_at) / RFU MBOAT4 (11741988_at) / Fold change /veh MBOAT4 (11741988_at) / RFU 11764193_at / Fold change /veh 11764193_at / RFU TMEM53 (11763286_at) / Fold change /veh TMEM53 (11763286_at) / RFU MAGEB2 (11727129_at) / Fold change /veh MAGEB2 (11727129_at) / RFU TMEM200A (11744735_a_at) / Fold change /veh TMEM200A (11744735_a_at) / RFU CCDC152 (11751479_a_at) / Fold change /veh CCDC152 (11751479_a_at) / RFU FAM211A (11726209_a_at) / Fold change /veh FAM211A (11726209_a_at) / RFU RGS16 (11746705_a_at) / Fold change /veh RGS16 (11746705_a_at) / RFU VCAN (11755009_s_at) / Fold change /veh VCAN (11755009_s_at) / RFU RHOB (11743442_s_at) / Fold change /veh RHOB (11743442_s_at) / RFU RGS16 (11720943_a_at) / Fold change /veh RGS16 (11720943_a_at) / RFU RGS16 (11720944_at) / Fold change /veh RGS16 (11720944_at) / RFU, VPS4B / Fold change vs veh, VPS4B / RFU, CREB1 / Fold change vs veh, CREB1 / RFU, DNAJC13 / Fold change vs veh, DNAJC13 / RFU, GNAQ / Fold change vs veh, GNAQ / RFU, CDK5R1 / Fold change vs veh, CDK5R1 / RFU, ZRANB3 / Fold change vs veh, ZRANB3 / RFU, CUL4A / Fold change vs veh, CUL4A / RFU, CCNY / Fold change vs veh, CCNY / RFU, UFL1 / Fold change vs veh, UFL1 / RFU, COG3 / Fold change vs veh, COG3 / RFU, DIAPH2 / Fold change vs veh, DIAPH2 / RFU, SKA2 / Fold change vs veh, SKA2 / RFU, AFF3 / Fold change vs veh, AFF3 / RFU, LMF1 / Fold change vs veh, LMF1 / RFU, IPO11 / Fold change vs veh, IPO11 / RFU, DFFB / Fold change vs veh, DFFB / RFU, FOXP1 / Fold change vs veh, FOXP1 / RFU, CARD8 / Fold change vs veh, CARD8 / RFU, STRN3 / Fold change vs veh, STRN3 / RFU, ADK / Fold change vs veh, ADK / RFU, RASSF2 / Fold change vs veh, RASSF2 / RFU, WIPF1 / Fold change vs veh, WIPF1 / RFU, LARP1B / Fold change vs veh, LARP1B / RFU, RASA1 / Fold change vs veh, RASA1 / RFU, RB1 / Fold change vs veh, RB1 / RFU, PPFIA1 / Fold change vs veh, PPFIA1 / RFU, MAT2A / Fold change vs veh, MAT2A / RFU, CCT5 / Fold change vs veh, CCT5 / RFU, WDR92 / Fold change vs veh, WDR92 / RFU, CUX1 / Fold change vs veh, CUX1 / RFU, TTC7A / Fold change vs veh, TTC7A / RFU, TMEM135 / Fold change vs veh, TMEM135 / RFU, DEPTOR / Fold change vs veh, DEPTOR / RFU, CPM / Fold change vs veh, CPM / RFU, DNAJB6 / Fold change vs veh, DNAJB6 / RFU, CACNA2D3 / Fold change vs veh, CACNA2D3 / RFU, DTX4 / Fold change vs veh, DTX4 / RFU, TFCP2 / Fold change vs veh, TFCP2 / RFU, GMCL1 /// GMCL1P1 / Fold change vs veh, GMCL1 /// GMCL1P1 / RFU, AEBP2 / Fold change vs veh, AEBP2 / RFU, SNHG1 /// SNORD22 /// SNORD25 /// SNORD26 /// SNORD27 /// SNORD28 /// SNORD29 /// SNORD31 / Fold change vs veh, SNHG1 /// SNORD22 /// SNORD25 /// SNORD26 /// SNORD27 /// SNORD28 /// SNORD29 /// SNORD31 / Fold change (Aza/veh), C12orf56 (ProbeSet 11735607_a_at) / Fold change (ACY-1035/veh), C12orf56 (ProbeSet 11735607_a_at) / Fold change (Aza/veh), FGFR1OP (ProbeSet 11751329_s_at) / Fold change (ACY-1035/veh), FGFR1OP (ProbeSet 11751329_s_at) / Fold change (Aza/veh), VPS36 (ProbeSet 11739960_a_at) / Fold change (ACY-1035/veh), VPS36 (ProbeSet 11739960_a_at) / RFU SYPL1 (11715823_x_at) / Fold change /veh SYPL1 (11715823_x_at) / RFU IGFBP7 (11715501_s_at) / Fold change /veh IGFBP7 (11715501_s_at) / RFU REEP3 (11722064_at) / Fold change /veh REEP3 (11722064_at) / RFU IGLL1 (11728026_x_at) / Fold change /veh IGLL1 (11728026_x_at): dose or concentration left out as unconfirmed
Conditions: ProbeSet 11720270_a_at; LIST B

SMILES: Nc1ccc(-c2cccs2)cc1NC(=O)c1ccc2c(c1)cc(C1CC1)n2CCN1CCOCC1 [ACY-1035]
- RFU, IBTK: 373.26 RFU
